Measured values published in patent publication US12637438B2, “Protoporphyrinogen oxidase inhibitors” (Enko Chem, Inc., priority 2021, dated 2026).

Tested on: PPO dG210 mutant Tall Waterhemp (Amaranthus tuberculatus)
Assay type: in vivo
Settings: relative to Flumioxazin, Sulfentrazone, and Pyroxasulfone

C#CCN1C(=O)C(F)(F)Oc2cc(F)c(-c3c(F)c(F)c(F)c(F)c3F)cc21 [Compound 2, 2,2,7-trifluoro-6-(perfluorophenyl)-4-(prop-2-yn-1-yl)-2H-benzo[b][1,4]oxazin-3(4H)-one]
resistant weed control, comparison in words: more effective at resistant weed control than the other commercially available herbicides
